Assay results as given in ChEMBL document CHEMBL1201862, “PubChem BioAssay data set” (2004).
Activity calls are given as the source filed them.

Legend:
[1] = target: T1, Aminopeptidase N (Plasmodium falciparum FcB1/Columbia, UniProt O96935); test: malaria alanyl aminopeptidase activity blockers – biochemical, fluorogenic H-Leu-NHMec substrate, 1536-well (AID 1445); parameters: species or system Plasmodium falciparum 3D7, 3D7
T1 sequence (O96935 whole entry): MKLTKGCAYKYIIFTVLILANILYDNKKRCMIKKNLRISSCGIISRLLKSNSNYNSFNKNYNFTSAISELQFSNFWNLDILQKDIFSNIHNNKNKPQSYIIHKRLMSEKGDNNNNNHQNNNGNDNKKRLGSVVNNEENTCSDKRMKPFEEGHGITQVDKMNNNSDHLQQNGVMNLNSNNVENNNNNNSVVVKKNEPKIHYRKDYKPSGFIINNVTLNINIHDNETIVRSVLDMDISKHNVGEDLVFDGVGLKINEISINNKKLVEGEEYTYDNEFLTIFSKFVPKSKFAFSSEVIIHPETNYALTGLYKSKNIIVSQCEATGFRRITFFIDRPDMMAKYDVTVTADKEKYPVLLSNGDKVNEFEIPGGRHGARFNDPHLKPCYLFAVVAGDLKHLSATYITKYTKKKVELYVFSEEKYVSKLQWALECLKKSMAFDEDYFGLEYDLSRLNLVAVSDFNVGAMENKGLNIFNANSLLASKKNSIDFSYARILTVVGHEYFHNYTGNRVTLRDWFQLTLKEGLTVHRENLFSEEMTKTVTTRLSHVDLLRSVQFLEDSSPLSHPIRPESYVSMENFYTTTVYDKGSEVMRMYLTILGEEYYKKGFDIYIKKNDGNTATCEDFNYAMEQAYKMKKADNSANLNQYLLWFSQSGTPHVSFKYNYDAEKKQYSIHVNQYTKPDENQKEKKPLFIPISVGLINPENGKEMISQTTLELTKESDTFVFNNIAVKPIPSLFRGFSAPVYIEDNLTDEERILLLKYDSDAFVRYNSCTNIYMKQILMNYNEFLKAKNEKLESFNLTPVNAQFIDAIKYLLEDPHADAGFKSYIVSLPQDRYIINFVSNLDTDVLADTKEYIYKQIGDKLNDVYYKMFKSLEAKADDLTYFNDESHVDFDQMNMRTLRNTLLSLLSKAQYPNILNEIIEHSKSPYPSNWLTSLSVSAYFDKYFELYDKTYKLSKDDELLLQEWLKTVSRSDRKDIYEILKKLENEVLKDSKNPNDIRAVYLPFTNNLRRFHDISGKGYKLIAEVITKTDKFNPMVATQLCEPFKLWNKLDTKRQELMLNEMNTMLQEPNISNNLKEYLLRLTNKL

[2] = Trypanosoma cruzi growth suppression in host cells – NIH3T3 host cells, beta-gal luminescence, confirmation (AID 2044); assay type: functional, cell-based;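 also: intracellular parasites grown in NIH/3T3 mouse fibroblasts as host cells; luminescent beta-galactosidase reporter signal from transgenic T. cruzi replicating inside host cells; inhibitors lower the luminescence signal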
[3] = NIH3T3 cell viability loss – ATP luminescence, mouse fibroblasts, counter-screen, dose response (AID 2010); assay type: functional, cell-based;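 also: cells exposed to compound for about 90 hours before reading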
[4] = target: T2, Carboxy-terminal domain RNA polymerase II polypeptide A small phosphatase 1 (Homo sapiens, UniProt Q9GZU7); test: CTDSP1 inhibitors, concentration-response, biochemical, absorbance readout, ultra-high-throughput screen actives (AID 540297); assay type: functional
T2 sequence (Q9GZU7 whole entry): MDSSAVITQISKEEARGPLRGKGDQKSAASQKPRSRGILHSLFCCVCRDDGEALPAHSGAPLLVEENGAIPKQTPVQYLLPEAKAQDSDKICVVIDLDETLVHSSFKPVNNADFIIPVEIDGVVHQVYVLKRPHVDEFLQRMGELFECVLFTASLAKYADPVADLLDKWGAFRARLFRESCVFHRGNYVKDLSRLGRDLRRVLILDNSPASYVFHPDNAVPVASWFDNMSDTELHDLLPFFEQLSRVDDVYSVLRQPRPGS

IC50 [1]	Structure (SMILES)	EC50 [2]	EC50 [3]	IC50 [4]
68.1 µM (active)	CCCN1C(=O)/C(=C/c2c(N3CCNC(=O)C3CC(=O)OC)nc3c(C)cccn3c2=O)SC1=S (configuration not stated)			
52.1 µM (active)	COc1cc(/C=C(/C#N)c2nc3ccccc3[nH]2)ccc1OCc1ccc(C(=O)O)o1			
58.6 µM (active)	O=C(O)c1cccc(NC(S)=NC(NC(=O)c2ccccc2[N+](=O)[O-])C(Cl)(Cl)Cl)c1 (configuration not stated)			

Structure (SMILES)	IC50 [1]	EC50 [2]	EC50 [3]	IC50 [4]
CC1=NN(c2nc(-c3ccc(C)cc3)cs2)C(=O)C1N=Nc1ccccc1O (configuration not stated)	3.37 µM (active)	1.63 µM (active)	> 60 µM (not active)	3.69 µM (active)
